Laboratory results published in US4694006A, “Acyl- or acyloxymethyl-allopurinol prodrugs” (priority 1983, dated 1987).
In brackets after ≈: the same amount, converted by molar mass. Counter-ions that a name gives are not always drawn. Like-named read-outs stand apart in the source and are kept apart here.

Assays:
rabbits [1] = assay: Intravenous administration to four rabbits, plasma levels; assay type: in vivo, rabbit; details: i.v., 25 mg allopurinol equivalents
[2] = In-vitro cleavage of allopurinol derivatives to allopurinol in 80% human plasma (pH 7.4) at 37° C; assay type: in vitro ADME; details: 80% plasma, pH 7.4, 37° C, read-out: Half-time (t0.5) of the conversion to allopurinol, 80% human plasma (converted)
Protocol: (§1) In-vitro cleavage of allopurinol derivatives
(§2) Solutions of various derivatives of allopurinol in aqueous buffer solutions or 80% human plasma solutions (pH 7.4) were kept at 37° C. The initial concentration of the derivatives was in the range 0.01-0.1 mg/ml. At various times an aliquot of the solutions was withdrawn and analyzed by HPLC for remaining derivative as well as for allopurinol. For the plasma solutions the aliquot withdrawn was deproteinized with ethanol or trichloroacetic acid and after centrifugation, the clear supernatant was injected on HPLC.
(§3) An HPLC method was used for the determination of allopurinol and its derivatives. In this method a reversed-phase LiChrosorb RP-8 column (250×4 mm) was eluated at ambient temperature with mixtures of methanol and 0.01M acetate buffer pH 4.5 or methanol and 0.03M phosphate buffer pH 7.0. The composition of the eluant was adjusted for each compound in order to provide an appropriate retention time. The flow rate was 1.2 ml/min and the column effluent was monitored spectrophotometrically at 252 nm or 274 nm. Quantitation of the compounds was done by measurement of peak heights.
(§4) The half-times of allopurinol formation from various derivatives at physiological conditions of pH and temperature are given in Table 2. It can be seen that in the presence of human plasma the rate of degradation is strongly accelerated, thus showing the susceptibility of the derivatives to undergo conversion into the parent active compound at conditions simiar to those prevailing in vivo.

[3] = In-vitro cleavage of allopurinol derivatives to allopurinol in pH 7.4 buffer at 37° C; assay type: physicochemical; details: read-out: Half-time (t0.5) of the conversion to allopurinol, pH 7.4 buffer (converted)
Protocol: as §1, §2, §3, §4

healthy human volunteer = assay: Rectal micro-enema in a healthy human volunteer, urinary excretion; assay type: in vivo; details: 100 mg allopurinol equivalents
Protocol: The dose given (2 ml of a 0.5% methylcellulose solution containing 118 mg/ml of the prodrug) corresponded to 100 mg of allopurinol. Urine was collected over 5 days and aliquots were assayed for allopurinol and oxipurinol by a specific HPLC assay.

physchem = details: for solubility: water
Protocol: (§5) The water-solubility and lipophilicity of the allopurinol drugs
(§6) The apparent partition coefficients (P) for some allopurinol derivatives and allopurinol were measured using the widely used 1-octanol-water system. Similarly, the solubility of the derivatives in water or aqueous buffer solutions was determined.

[4] = Protocol: as §5, §6
[5] = Comparative absorption study following peroral administration, urinary excretion; assay type: in vivo; details: urine, po, human, dose corresponding to 100 mg allopurinol, read-out: total urinary excretion of allopurinol and oxipurinol
Protocol: A comparative absorption study was also made of allopurinol and the above mentioned prodrug following peroral administration. […] The total urinary excretion of allopurinol and oxipurinol was measured and found to correspond to 67% of the dose given for the allopurinol tablet and 92% for the preparation containing the prodrug derivative.

[6] = cited from earlier work
man [7] = details: cited from earlier work
rabbits [8] = assay: Bioavailability following rectal administration to rabbits (suppositories, micro-enemas); details: rabbits, rectal suppositories, 25 mg allopurinol equivalents, all three blood sampling times
Protocol: (§7) The suppositories or micro-enemas were administered to rabbits. After drug administration, blood samples were taken at various times and the plasma fraction assayed for allopurinol and its major metabolite oxipurinol using the HPLC method described above.

[9] = as above; details: rabbit, in vivo, 25 mg
Protocol: as §7

man [10] = details: rectal, various suppository preparations; cited from earlier work
[11] = intravenous (Breithaupt & Tittel, 1982); cited from earlier work
[12] = in vivo; cited from earlier work

CCN(CC)CC(=O)OCn1ncc2c(=O)[nH]cnc21
bioavailability of the parent drug from the prodrug given intravenously (rabbits [1]): almost complete bioavailability | half-life [2]: 10 min | half-life [3]: 0.817 h | bioavailability of the parent drug from the prodrug given rectally (healthy human volunteer): virtually complete bioavailability | aqueous solubility relative to the parent compound (factor) (physchem): 5,000 | solubility (physchem): > 500000 µg/mL

CCCC(=O)OCn1cnc2c(cnn2COC(=O)CCC)c1=O [1,5-bis(Butyryloxymethyl)allopurinol]
half-life [2]: 22 min | log P [4]: 1.82 | half-life [3]: 25 h | solubility (physchem): 50 µg/mL (≈ 0.149 mM)

CC(=O)OCn1ncc2c(O)ncnc21 [1-(Acetoxymethyl)allopurinol, 1-(Acetyloxymethyl)allopurinol]
half-life [2]: 31 min | log P [4]: -0.35 | half-life [3]: 87 h | solubility (physchem): 580 µg/mL (≈ 2.79 mM)

CC(=O)n1ncc2c(O)ncnc21 [1-(Acetyl)allopurinol]
half-life [2]: 6 min | log P [4]: -0.35 | half-life [3]: 0.433 h | solubility (physchem): 750 µg/mL (≈ 4.21 mM)

CCCC(=O)n1ncc2c(O)ncnc21 [1-(Butyryl)allopurinol]
half-life [2]: 2.5 min | log P [4]: 0.85 | half-life [3]: 0.6 h | solubility (physchem): 110 µg/mL (≈ 0.533 mM)

CC(C)C[C@H](N)C(=O)OCn1ncc2c(=O)[nH]cnc21 [1-(L-Leucyloxymethyl)allopurinol, 1-(L-Leucyloxymethyl)allopurinol (hydrobromide)]
half-life [2]: 6 min | log P ([4]; pH 8): 0.19 | half-life [3]: 0.283 h | solubility (physchem): > 400000 µg/mL

CN(C)CC(=O)OCn1ncc2c(=O)[nH]cnc21 [1-(N,N-Dimethylglycyloxymethyl)allopurinol (hydrochloride)]
half-life [2]: 7 min | log P ([4]; pH 8): -0.49 | half-life [3]: 1.2 h | solubility (physchem): > 500000 µg/mL

CCCN(CCC)CC(=O)OCn1ncc2c(=O)[nH]cnc21 [1-(N,N-Dipropylglycyloxymethyl)allopurinol (hydrochloride)]
half-life [2]: 12 min | log P ([4]; pH 8): 1.27 | half-life [3]: 0.833 h | solubility (physchem): > 400000 µg/mL

O=C(OCn1ncc2c(=O)[nH]cnc21)c1cccnc1 [1-(Nicotinoyloxymethyl)allopurinol]
half-life [2]: 21 min | log P [4]: 0.27 | half-life [3]: 26 h | solubility (physchem): 93 µg/mL (≈ 0.343 mM)

CCC(=O)n1ncc2c(O)ncnc21 [1-(Propionyl)allopurinol]
half-life [2]: 4 min | log P [4]: 0.30 | half-life [3]: 0.5 h | solubility (physchem): 300 µg/mL (≈ 1.56 mM)

CCN(CC)C(=O)CCC(=O)OCn1ncc2c(O)ncnc21 [1-[3-(N,N-Diethylcarbamoyl)propionyloxymethyl]allopurinol]
half-life [2]: 504 min | log P [4]: -0.22 | half-life [3]: 81 h | solubility (physchem): 33000 µg/mL (≈ 103 mM)

CCCC(=O)OCn1cc2c(=O)n(COC(=O)CCC)cnc2n1 [2,5-bis(Butyryloxymethyl)allopurinol]
half-life [2]: 32 min | log P [4]: 1.60 | half-life [3]: 35 h | solubility (physchem): 94 µg/mL (≈ 0.279 mM)

CCCC(=O)OCn1cc2c(=O)[nH]cnc2n1 [2-(Butyryloxymethyl)allopurinol]
half-life [2]: 22 min | log P [4]: 0.33 | half-life [3]: 54 h | solubility (physchem): 1500 µg/mL (≈ 6.35 mM)

Oc1ncnc2[nH]ncc12 [Allopurinol, allopurinol]
dose excreted [5]: 67% | plasma levels of allopurinol after intravenous administration (rabbits [1]; all blood sampling times): below 1 μg/ml | solubility in water ([6]; 25° C): about 0.5 mg/ml | absolute systemic bioavailability of oral tablets (man [7]; man, oral tablets (Appelbaum et al., 1982)): about 70% | oral dose excreted in the stool unchanged (man [7]; oral dose (Elion et al., 1966)): 20-25% | log P ([4]; Between octanol and water): -0.55 | plasma levels of allopurinol after rectal administration (rabbits [8]): below 1 μg/ml | Fa [9]: < 2% | amount absorbed from suppository preparations administered rectally (man [10]): < 5% | dose recovered in the urine as intact allopurinol [11]: 12% | dose recovered in the urine, total [11]: about 88% | solubility (physchem): 500 µg/mL (≈ 3.67 mM)

Oc1ncnc2[nH]ncc12 [sodium salt of allopurinol]
pH of infusion fluids ([6]; sodium salt of allopurinol at 0.5-1%): 10.5-11.5 | adverse effects of administration of infusion fluids [12]: may cause thrombophlebitis or perivascular inflammation
